Values quoted from earlier work as cited in patent publication EP3653214A1, “IMPROVED DOSAGE REGIMEN FOR URSODEOXYCHOLIC ACID BASED ON ALKALINE PHOSPHATASE LEVELS IN THE TREATMENT OF CHRONIC CHOLESTATIC LIVER DISEASES” (Disphar International B.V., priority 2018, dated 2020).

Conditions: in vivo

In the case of C[C@H](CCC(=O)O)[C@H]1CC[C@H]2[C@@H]3[C@@H](O)C[C@@H]4C[C@H](O)CC[C@]4(C)[C@H]3CC[C@]12C [UDCA, ursodeoxycholic acid], the tolerability is listed as “generally well tolerated”.
